The results in this text go back to patent US20230233569A1 (Revolution Medicines, Inc., priority 2020, published 2023).

Read-outs that look alike come from different tables or passages of the source.

Common to all, as to assay: Ras-Raf disruption / FRET / MOA assay (BRAF RBD)
What all share (assay type): biochemical

In one experiment the target is KRAS G12C (Homo sapiens, UniProt P01116+P62937, G12C). The note with it: with Cyclophilin A. The method in brief: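 TR-FRET read-out after 1.5 h with anti-His Eu-W1024 (10 nM) and anti-GST APC (50 nM), following 3 h at 25 °C of compound (top 30 μM, 3-fold, 10 points) with 25 μM Cyclophilin A, 12.5 nM GMPPNP-loaded K-Ras G12C and 50 nM BRAF RBD; IC50 reported.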
KRAS G12C, sequence (P01116 1-169 isoform P01116-2 G12C limits assumed): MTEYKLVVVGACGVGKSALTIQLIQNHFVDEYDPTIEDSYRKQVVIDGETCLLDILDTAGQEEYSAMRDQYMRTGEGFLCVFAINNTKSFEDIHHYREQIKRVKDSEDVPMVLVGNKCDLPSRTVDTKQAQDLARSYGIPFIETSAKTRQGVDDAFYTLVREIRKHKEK
KRAS G12C, sequence (P62937 whole entry): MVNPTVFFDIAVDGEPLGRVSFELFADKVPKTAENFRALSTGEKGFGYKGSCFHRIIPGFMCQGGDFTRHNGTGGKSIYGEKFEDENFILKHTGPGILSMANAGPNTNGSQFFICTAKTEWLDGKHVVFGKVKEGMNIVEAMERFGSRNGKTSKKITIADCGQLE
Another experiment has as its target NRAS G12C (Homo sapiens, UniProt P01111+P62937, G12C). The gist of the method:
(§1)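 Compound-induced Ras–Cyclophilin A ternary complex disrupting BRAF RBD binding, read as IC50 from reduced TR-FRET ratio relative to DMSO. Final: Ras-GMPPNP 12.5 nM, BRAF RBD 50 nM, Cyclophilin A 25 μM, top compound 30 μM (3-fold, 10 points); 3 h at 25 °C, then 1.5 h with detection antibodies.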

For a further experiment, the target named is KRAS G12S (Homo sapiens, UniProt P01116+P62937, G12S). Particulars: with Cyclophilin A. The gist of the method: as §1
KRAS G12S, sequence (P01116 1-169 isoform P01116-2 G12S limits assumed): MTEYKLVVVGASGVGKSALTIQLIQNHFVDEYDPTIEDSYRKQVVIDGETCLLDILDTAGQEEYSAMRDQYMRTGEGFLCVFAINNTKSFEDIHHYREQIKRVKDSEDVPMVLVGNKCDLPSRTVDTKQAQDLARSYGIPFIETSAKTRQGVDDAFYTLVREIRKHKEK
KRAS G12S, sequence (P62937 whole entry): as the sequence (P62937 whole entry) above
Another experiment concerns the target KRAS WT (Homo sapiens, UniProt P01116+P62937). The note with it: with Cyclophilin A. The gist of the method:
as §1

The target of another experiment is KRAS G13D (Homo sapiens, UniProt P01116+P62937, G13D). The note with it: with Cyclophilin A. The method in brief:
as §1

In another experiment the target is NRAS Q61K (Homo sapiens, UniProt P01111+P62937, Q61K). The method in brief: as §1
NRAS Q61K, sequence (P01111 whole entry Q61K): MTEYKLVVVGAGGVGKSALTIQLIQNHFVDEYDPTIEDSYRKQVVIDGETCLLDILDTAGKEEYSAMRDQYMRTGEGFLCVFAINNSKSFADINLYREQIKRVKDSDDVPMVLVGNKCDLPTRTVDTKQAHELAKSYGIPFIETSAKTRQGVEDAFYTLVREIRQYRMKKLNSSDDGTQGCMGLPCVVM
NRAS Q61K, sequence (P62937 whole entry): as the sequence (P62937 whole entry) above
The target in the next experiment is NRAS Q61R (Homo sapiens, UniProt P01111+P62937, Q61R). The method in brief: as §1
NRAS Q61R, sequence (P01111 whole entry Q61R): as the sequence (P01111 whole entry Q61K) above, with K61R counted along it
NRAS Q61R, sequence (P62937 whole entry): as the sequence (P62937 whole entry) above
For another experiment, the target named is NRAS WT (Homo sapiens, UniProt P01111+P62937). The method in brief:
as §1

In the next experiment the target is KRAS G12D (Homo sapiens, UniProt P01116+P62937, G12D). Particulars: with Cyclophilin A. The method in brief:
as §1

The next experiment has as its target KRAS Q61H (Homo sapiens, UniProt P01116+P62937, Q61H). The gist of the method:
as §1

The next experiment concerns the target KRAS G13C (Homo sapiens, UniProt P01116+P62937, G13C). The note with it: with Cyclophilin A. The method in brief:
as §1

The target of the next experiment is KRAS G12V (Homo sapiens, UniProt P01116+P62937, G12V). The note with it: with Cyclophilin A. The gist of the method:
as §1

The mark [1] stands for this setting: Ras-Raf disruption, read-out: KRAS G12C FRET data IC50.
[2] abbreviates: NRAS G12C, read-out: NRAS G12C FRET data IC50.
The mark [3] stands for this setting: Ras-Raf disruption, read-out: KRAS G12S FRET data IC50.
Setting [4] is: Ras-Raf disruption, read-out: KRAS WT FRET data IC50.
[5] abbreviates: Ras-Raf disruption, read-out: KRAS G13D FRET data IC50.
Setting [6] is: NRAS Q61K, read-out: NRAS Q61K FRET data IC50.
Setting [7] is: NRAS Q61R, read-out: NRAS Q61R FRET data IC50.
[8] abbreviates: NRAS WT, read-out: NRAS WT FRET data IC50.
Setting [9] is: Ras-Raf disruption, read-out: KRAS G12D FRET data IC50.
Where [10] appears, read: KRAS Q61H, read-out: KRAS Q61H FRET data IC50.
The mark [11] stands for this setting: Ras-Raf disruption, read-out: KRAS G13C FRET data IC50.
The mark [12] stands for this setting: Ras-Raf disruption, read-out: KRAS G12V FRET data IC50.

KRAS G12D, sequence (P01116 1-169 isoform P01116-2 G12D limits assumed): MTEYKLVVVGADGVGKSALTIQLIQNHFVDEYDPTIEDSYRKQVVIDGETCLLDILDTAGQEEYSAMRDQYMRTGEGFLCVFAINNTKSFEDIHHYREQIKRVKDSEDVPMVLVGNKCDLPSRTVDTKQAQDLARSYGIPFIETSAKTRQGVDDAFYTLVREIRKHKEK
KRAS G12D, sequence (P62937 whole entry): as the sequence (P62937 whole entry) above
KRAS G13D, sequence (P01116 1-169 isoform P01116-2 G13D limits assumed): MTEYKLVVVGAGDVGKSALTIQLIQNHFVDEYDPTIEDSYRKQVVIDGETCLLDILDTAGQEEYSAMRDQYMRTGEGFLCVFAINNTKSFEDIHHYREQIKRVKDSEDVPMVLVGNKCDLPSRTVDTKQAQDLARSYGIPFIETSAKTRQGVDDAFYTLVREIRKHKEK
KRAS G13D, sequence (P62937 whole entry): as the sequence (P62937 whole entry) above
NRAS WT, sequence (P01111 whole entry): as the sequence (P01111 whole entry Q61K) above, with K61Q counted along it
NRAS WT, sequence (P62937 whole entry): as the sequence (P62937 whole entry) above
KRAS Q61H, sequence (P01116 1-169 isoform P01116-2 Q61H limits assumed): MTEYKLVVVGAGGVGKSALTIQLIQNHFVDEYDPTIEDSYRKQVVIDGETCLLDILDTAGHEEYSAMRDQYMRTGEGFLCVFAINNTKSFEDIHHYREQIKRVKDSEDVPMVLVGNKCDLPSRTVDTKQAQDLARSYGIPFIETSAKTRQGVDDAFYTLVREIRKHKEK
KRAS Q61H, sequence (P62937 whole entry): as the sequence (P62937 whole entry) above
KRAS G13C, sequence (P01116 1-169 isoform P01116-2 G13C limits assumed): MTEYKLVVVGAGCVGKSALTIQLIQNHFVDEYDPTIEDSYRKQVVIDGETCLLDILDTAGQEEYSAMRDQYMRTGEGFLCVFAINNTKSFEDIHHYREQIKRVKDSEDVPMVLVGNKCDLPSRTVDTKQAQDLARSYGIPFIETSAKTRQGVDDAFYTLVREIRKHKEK
KRAS G13C, sequence (P62937 whole entry): as the sequence (P62937 whole entry) above
KRAS WT, sequence (P01116 1-169 isoform P01116-2 limits assumed): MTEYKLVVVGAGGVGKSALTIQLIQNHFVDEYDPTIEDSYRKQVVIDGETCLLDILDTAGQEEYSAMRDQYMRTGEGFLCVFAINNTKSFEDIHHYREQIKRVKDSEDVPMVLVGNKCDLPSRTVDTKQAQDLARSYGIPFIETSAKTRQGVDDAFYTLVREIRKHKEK
KRAS WT, sequence (P62937 whole entry): as the sequence (P62937 whole entry) above
NRAS G12C, sequence (P01111 whole entry G12C): as the sequence (P01111 whole entry Q61K) above, with G12C, K61Q counted along it
NRAS G12C, sequence (P62937 whole entry): as the sequence (P62937 whole entry) above
KRAS G12V, sequence (P01116 1-169 isoform P01116-2 G12V limits assumed): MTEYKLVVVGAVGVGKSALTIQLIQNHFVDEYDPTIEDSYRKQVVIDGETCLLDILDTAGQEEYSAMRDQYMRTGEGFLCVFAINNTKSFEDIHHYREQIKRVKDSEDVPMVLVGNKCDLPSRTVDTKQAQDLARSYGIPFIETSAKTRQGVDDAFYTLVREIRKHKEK
KRAS G12V, sequence (P62937 whole entry): as the sequence (P62937 whole entry) above

On to `CCn1c(-c2cccnc2[C@H](C)OC)c2c3cc(ccc31)-c1cc(O)cc(c1)C[C@H](NC(=O)[C@H](C1CCCC1)N(C)C(=O)CN(C)C(=O)[C@H]1N[C@H]1C1(OC)CC1)C(=O)N1CCC[C@H](N1)C(=O)OCC(C)(C)C2` (single isomer, unassigned) [Example 322], for which the concentration for half-maximal inhibition (IC50) (in general, the concentration at which inhibition is half-maximal) against KRAS G12C (KRAS G12C FRET data IC50, Ras-Raf disruption) lay within 10 to 100 nM; against NRAS G12C (NRAS G12C FRET data IC50, NRAS G12C), 10 to 100 nM; on KRAS G12S (KRAS G12S FRET data IC50, Ras-Raf disruption), 10 to 100 nM; against KRAS WT (KRAS WT FRET data IC50, Ras-Raf disruption), 10 to 100 nM; against KRAS G13D (KRAS G13D FRET data IC50, Ras-Raf disruption), 100 to 1000 nM; at NRAS Q61K, 100 to 1000 nM. Also, the IC50 is 100 to 1000 nM at NRAS Q61R; 10 to 100 nM at NRAS WT; 100 to 1000 nM against KRAS G12D (KRAS G12D FRET data IC50, Ras-Raf disruption); 10 to 100 nM on KRAS Q61H; 10 to 100 nM against KRAS G13C (KRAS G13C FRET data IC50, Ras-Raf disruption); 10 to 100 nM against KRAS G12V (KRAS G12V FRET data IC50, Ras-Raf disruption).

For `CCn1c(-c2cccnc2[C@H](C)OC)c2c3cc(ccc31)-c1csc(n1)C[C@H](NC(=O)[C@H](C(C)C)N(C)C(=O)N1CC[C@H](N(C)C(=O)[C@@H]3CN3)C1)C(=O)N1CCC[C@H](N1)C(=O)OCC(C)(C)C2` (atropisomer, axis not shown) [Example 229], the 50% inhibitory concentration (IC50) at KRAS G12C (setting [1]) lay within 100 to 1000 nM; on NRAS G12C (setting [2]), 100 to 1000 nM; at KRAS G12S (setting [3]), 100 to 1000 nM; at KRAS WT (setting [4]), 100 to 1000 nM; at KRAS G13D (setting [5]) it was 100 to 1000 nM; on NRAS Q61K (setting [6]) it was 10 to 100 nM. Besides, the IC50 on NRAS Q61R (setting [7]) fell in the range of 100 to 1000 nM; at NRAS WT (setting [8]), 100 to 1000 nM; at KRAS G12D (setting [9]) it was 1000 to 10000 nM; at KRAS Q61H (setting [10]) it was 10 to 100 nM; on KRAS G13C (setting [11]), 100 to 1000 nM; on KRAS G12V (setting [12]), 100 to 1000 nM.

As to `CCn1c(-c2cccnc2[C@H](C)OC)c2c3cc(ccc31)-c1cc(O)cc(c1)C[C@H](NC(=O)[C@H](C(C)C)N(C)C(=O)C1CN(S(=O)(=O)[C@H]3CN3C)C1)C(=O)N1CCC[C@H](N1)C(=O)OCC(C)(C)C2` (single isomer, unassigned) [Example 117], the IC50 was in the range of 10 to 100 nM on KRAS G12C (setting [1]); 100 to 1000 nM on NRAS G12C (setting [2]); 100 to 1000 nM at KRAS G12S (setting [3]); 100 to 1000 nM on KRAS WT (setting [4]); 100 to 1000 nM on KRAS G13D (setting [5]); 100 to 1000 nM on NRAS Q61K (setting [6]). In addition, the concentration for half-maximal inhibition (IC50) at NRAS Q61R (setting [7]) is 100 to 1000 nM; at NRAS WT (setting [8]) it was 10 to 100 nM; at KRAS G12D (setting [9]) it was 1000 to 10000 nM; at KRAS Q61H (setting [10]), 10 to 100 nM; at KRAS G13C (setting [11]), 10 to 100 nM; on KRAS G12V (setting [12]) it was 100 to 1000 nM.

With `CCn1c(-c2cccnc2[C@H](C)OC)c2c3cc(ccc31)-c1cc(O)cc(c1)C[C@H](NC(=O)[C@H](C(C)C)N(C)C(=O)[C@H]1CCN(C(=O)[C@H]3CN3)[C@H]1C)C(=O)N1CCC[C@H](N1)C(=O)OCC(C)(C)C2` (atropisomer, axis not shown) [Example 206], the IC50 was 10 to 100 nM at KRAS G12C (setting [1]); 10 to 100 nM at NRAS G12C (setting [2]); 100 to 1000 nM on KRAS G12S (setting [3]); 100 to 1000 nM at KRAS WT (setting [4]); 100 to 1000 nM at KRAS G13D (setting [5]); 1000 to 10000 nM at NRAS Q61K (setting [6]). Also, the half-maximal inhibitory concentration (IC50) at NRAS Q61R (setting [7]) lay within 1000 to 10000 nM; at NRAS WT (setting [8]), 100 to 1000 nM; on KRAS G12D (setting [9]) it was 1000 to 10000 nM; on KRAS Q61H (setting [10]), 100 to 1000 nM; at KRAS G13C (setting [11]), 100 to 1000 nM; at KRAS G12V (setting [12]) it was 100 to 1000 nM.

Consider `CCn1c(-c2cccnc2[C@H](C)OC)c2c3cc(ccc31)-c1cc(O)cc(c1)C[C@H](NC(=O)[C@H](C(C)C)N(C)C(=O)[C@@H]1CCN(C(=O)[C@@H]3CN3)[C@@H]1C)C(=O)N1CCC[C@H](N1)C(=O)OCC(C)(C)C2` (atropisomer, axis not shown) [Example 208], for which the half-maximal inhibitory concentration (IC50) on KRAS G12C (setting [1]) is 10 to 100 nM; on NRAS G12C (setting [2]), 10 to 100 nM; on KRAS G12S (setting [3]), 10 to 100 nM; at KRAS WT (setting [4]), 10 to 100 nM; on KRAS G13D (setting [5]), 100 to 1000 nM; at NRAS Q61K (setting [6]) it was 100 to 1000 nM. Also, the IC50 lay within 100 to 1000 nM at NRAS Q61R (setting [7]); 10 to 100 nM on NRAS WT (setting [8]); 100 to 1000 nM at KRAS G12D (setting [9]); 10 to 100 nM at KRAS Q61H (setting [10]); 10 to 100 nM at KRAS G13C (setting [11]); 10 to 100 nM on KRAS G12V (setting [12]).
